Experimental data: BindingDB's records for doi:10.3109/14756361003691860 (Tarbiat Modares University, 2010)

What follows are molecules tested against Acetylcholinesterase (Homo sapiens, UniProt P22303) (assay: AChE Inhibition Assay). Conditions: pH 7.4; 37 °C.
Experimental: The reaction was carried out at 37°C in 70 mM phosphate buffer (Na2HPO4/NaH2PO4, pH 7.4) containing the enzyme (20 μl volume, diluted 100 times in phosphate buffer, pH 7.4), DTNB (5,5-dithiobis(2-nitrobenzoic acid)) (10−4M concentration) and ATCh (1.35 × 10−4M concentration). The absorbance change at 37°C was monitored with the spectrophotometer at 412 nm for 3 min. and three replicates were run in each experiment.

Acetylcholinesterase, sequence (P22303 whole entry): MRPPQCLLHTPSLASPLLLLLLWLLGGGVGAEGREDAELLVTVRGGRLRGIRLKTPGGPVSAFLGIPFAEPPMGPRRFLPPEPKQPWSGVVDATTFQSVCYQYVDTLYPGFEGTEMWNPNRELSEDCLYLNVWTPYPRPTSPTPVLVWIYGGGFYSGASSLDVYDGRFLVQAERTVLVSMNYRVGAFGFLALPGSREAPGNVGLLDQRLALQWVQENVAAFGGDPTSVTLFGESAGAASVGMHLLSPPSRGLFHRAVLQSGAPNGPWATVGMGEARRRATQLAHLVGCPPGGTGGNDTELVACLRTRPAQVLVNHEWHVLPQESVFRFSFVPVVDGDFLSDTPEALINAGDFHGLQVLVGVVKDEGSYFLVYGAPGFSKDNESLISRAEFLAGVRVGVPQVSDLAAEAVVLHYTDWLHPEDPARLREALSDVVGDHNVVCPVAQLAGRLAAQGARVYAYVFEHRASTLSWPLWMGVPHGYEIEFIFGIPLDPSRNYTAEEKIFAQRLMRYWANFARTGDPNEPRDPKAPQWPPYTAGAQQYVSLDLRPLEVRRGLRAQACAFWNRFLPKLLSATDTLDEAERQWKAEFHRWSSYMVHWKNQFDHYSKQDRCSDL

| Structure (SMILES) | IC50 [mM] |
| --- | --- |
| O=P(O)(O)CN1CCCN(CP(=O)(O)O)CC1 [Homopiperazine-1,4-bis(methylenephosphonic acid) (11)] | 28.7 |
| CCCCC(CC)CN(CP(=O)(O)O)CP(=O)(O)O (stereo unspecified) [N-2-Ethyl hexyliminobis(methylenephosphonic acid) (6)] | 9.48 |
| O=P(O)(O)CN(CCc1ccccc1)CP(=O)(O)O [N-2-Phenyl ethyliminobis(methylenephosphonic acid) (8)] | 11 |
| O=P(O)(O)CN(Cc1ccccc1)CP(=O)(O)O [N-Benzyliminobis(methylenephosphonic acid) (7)] | 11.9 |
| O=P(O)(O)CN(CP(=O)(O)O)C1CCCCC1 [N-Cyclohexyliminobis(methylenephosphonic acid) (10)] | 9.96 |
| O=P(O)(O)CN(CP(=O)(O)O)C1CCCC1 [N-Cyclopentyliminobis(methylenephosphonic acid) (9)] | 11.1 |
| CCN(CP(=O)(O)O)CP(=O)(O)O [N-Ethyliminobis(methylenephosphonic acid) (2)] | 22.1 |
| CC(C)N(CP(=O)(O)O)CP(=O)(O)O [N-Isopropyliminobis(methylenephosphonic acid) (5)] | 9.11 |
| CN(CP(=O)(O)O)CP(=O)(O)O [N-Methyliminobis(methylenephosphonic acid) (1)] | 28.1 |
| CCCCCN(CP(=O)(O)O)CP(=O)(O)O [N-Pentyliminobis(methylenephosphonic acid) (4)] | 11.7 |
| CCCN(CP(=O)(O)O)CP(=O)(O)O [N-Propyliminobis(methylenephosphonic acid) (3)] | 12.7 |
